# Results: patent publication US12139508B2, “Steroid derivative regulators, method for preparing the same, and uses thereof” (JIANGSU HANSOH PHARMACEUTICAL GROUP CO., LTD., priority 2018, dated 2024)
# Like-named read-outs stand apart in the source and are kept apart here.
# Legend:
# GABA-A receptor = experiment: 35S-TBPS binding assay (GABAA receptor binding ability test); design: species or system Sprague-Dawley rat; conditions: rat cerebral cortex cell membrane, 5 μM GABA, 2 nM 35S-TBPS; read-out: 35S-TBPS bindng test: IC50 on inhibiting the TBPS binding activity
# Protocol: 1.2 Experimental Procedures 1.2.1 Extraction of Cerebral Cortex Cell Membrane:
# 1. The cerebral cortex of male Sprague-Dawley rat was isolated.
# 2. A pre-chilled 0.32 M sucrose solution (one tablet of protease inhibitor was added per 100 ml) was added to the cerebral cortex (the volume of sucrose solution was 10 times the volume of the cerebral cortex). The mixture was crushed with a 50 mL glass tissue homogenizer in batches and mixed well.
# 3. The mixture was centrifuged at 1500 g, 4° C. for 10 minutes, and the supernatant was collected.
# 4. The mixture was centrifuged at 20000 g, 4° C. for 30 minutes, and the supernatant was discarded.
# 5. The precipitate was resuspended with the pre-chilled phosphate buffer saline (PBS) (one tablet of protease inhibitor was added per 100 ml). An average of 4 ml of PBS was added per rat, and the mixture was mixed well by a glass tissue homogenizer.
# 6. The mixture was centrifuged at 10000 g, 4° C. for 10 minutes, and the supernatant was discarded.
# 7. Steps 5 and 6 were repeated three times.
# 8. Finally, the precipitate was resuspended with 4 volumes of PBS. The resulting solution was dispensed, frozen in liquid nitrogen, and stored at −80° C.
# 9. The protein concentration was measured by the bicinchoninic acid (BCA) method.
# 1.2.2 ^35S-TBPS Binding Assay
# 1. 230 μL of PBS was added to each well of a well plate with 1.1 ml volume.
# 2. 60 μL of the cerebral cortex cell membrane (5 μg/μL) solution was added to each well, and the mixture was mixed well.
# 3. The test compound (3 μL per well) was added, and the plate was incubated at 25° C. for 5 minutes. The DMSO concentration was 1%. The initial compound concentration was 1 μM, and a 3-fold dilution in gradient was carried out to obtain a total of 8 gradients and 2 replicates. 1% DMSO was used as a negative control, and 10 μM P026-2 was used as a positive control.
# 4. GABA was added at a final concentration of 5 μM, and incubated at 25° C. for 5 minutes. 1 mM GABA solution was formulated, and 1.5 μL of the solution was added to each well.
# 5. ^35S-TBPS was added at a final concentration of 2 nM. The concentration of isotope mother solution was 9.7 μM. After dilution with PBS for 100 times, 6 μL of the diluted isotope solution was added to each well.
# 6. The plate was incubated at 4° C. for 20 hours.
# 7. The FilterMate GF/C plate was pre-treated with 0.5% PEI, and incubated at 4° C. for 1 hour.
# 8. The FilterMate GF/C plate was washed with Universal Harvester twice, 50 ml PBS each time.
# 9. The reaction solution was transferred to the GF/C plate, and each well was washed 4 times with 900 μL of PBS.
# 10. The washed GF/C plate was placed at 55° C. and dried for 10 minutes.
# 11. 40 μL of scintillation solution was added to each well, and the CPM value was read with TopCount.
# 1.2.3 Experimental Data Processing Method:
# In the experiment, the CPM (counts per minute) value was read with TopCount. According to the readings of the High control (DMSO) and the Low control ([…] of the positive compound) experimental groups, the […] inhibition was calculated based on the following formula: % Inhibition=100×(CPMHigh control−CPMSample)/(CPMHigh control−CPMLow control)
# The IC50 of the compound was calculated according to the following 4-parameter nonlinear logic formula: Y=Bottom+(Top−Bottom)/(1+10^((Log IC50−X)*Hill Slope)),
# wherein: • X represents the log of compound concentration, • Y represents the 0 Inhibition.
# The effect of the compound of the present invention on the TBPS binding activity was determined by the above test, and the measured IC50 values are shown in Table 1.
# [1] = Pharmacokinetic assay in Balb/c mice (plasma and brain tissue); type: in vivo; conditions: mouse, po, 5 mg/kg p.o., male Balb/c mice; for AUC(0-t): read-out: Area under curve AUC0-t; for AUC(0-inf): read-out: Area under curve AUC0-∞; for half-life: read-out: Half-life t1/2 (converted); for MRT: read-out: Mean residence time MRT; for Tmax: read-out: Peak time tmax; for Cmax: read-out: Plasma concentration Cmax
# Protocol: Balb/c mice were used as test animals. The pharmacokinetic behavior in mice (plasma and brain tissue) of the compounds of Examples 2, 3, 5, 6, 9, 13, 59, 60, 61, 63, 71-74, 81, 103, 130, 134, 135, 137, 138, 140, 141, 143, 145 and 146 orally administered at a dose of 5 mg/kg was studied.
# Each group had 24 male Balb/c mice. After an overnight fast, Balb/c mice were administered p.o. with the test compound at an administration dose of 5 mg/kg and an administration volume of 10 mL/kg.
# 0.2 ml of blood was taken from the heart before administration and at 0, 0.5, 1, 2, 4, 6, 8 and 24 hours after administration. The samples were stored in EDTA-K2 tubes, and centrifuged for 6 minutes at 4° C., 6000 rpm to separate the plasma. The plasma samples were stored at −80° C. The mice were sacrificed with CO2, and the whole brain tissue was taken out, weighed, placed in a 2 mL centrifuge tube and stored at −80° C.
# 1) 160 μL of acetonitrile was added to 40 μL of the plasma sample for precipitation, and then the mixture was centrifuged for 5-20 minutes at 3500×g.
# 2) 90 μL of acetonitrile containing the internal standard (100 ng/mL) was added to 30 μL of the plasma and brain homogenate samples for precipitation, and then the mixture was centrifuged for 8 minutes at 13000 rpm.
# 3) 70 μL of the treated supernatant was taken and added to 70 μL of water, and mixed by vortex for 10 minutes. 20 μL of the mixture was taken to analyze the concentration of the test compound by LC/MS/MS. LC/MS/MS analysis instrument: AB Sciex API 4000 Qtrap.
# • Liquid chromatography condition: Shimadzu LC-20AD pump. • Chromatographic column: Agilent ZORBAX™ XDB-C18 (50×2.1 mm, 3.5 μm) (note: Aglient ZORBAX™ is a kind of column used in the reverse HPLC); • Mobile phase: Eluent A was 0.10% formic acid in water, and Eluent B was acetonitrile. • Flow rate: 0.4 mL/min • Elution time: 0-4.0 minutes, the eluent is as follows:
# The main parameters of pharmacokinetics were calculated by WinNonlin 6.1.
smiles,measurement,setting,value
"CC(=O)[C@H]1[C@H]2C[C@H]2[C@H]2[C@@H]3CC[C@@H]4C[C@](C)(O)CC[C@@H]4[C@H]3CC[C@@]21C [Example 1, 1-((2R,4aS,4bR,6aS,7S,7aS,8aR,8bR,8cR,10aR)-2-Hydroxy-2,6a-dimethyloctadecahydrocyclopropa[4,5]cyclopenta[1,2-a]phenanthren-7-yl)ethan-1-one]",IC50,GABA-A receptor,15 nM
"C[C@@]1(O)CC[C@H]2[C@H](CC[C@@H]3[C@@H]2CC[C@@]2(C)[C@H]3[C@@H]3C[C@@H]3[C@@H]2C(=O)Cn2nccn2)C1 [Example 7, 1-((2R,4aS,4bR,6aS,7S,7aS,8aR,8bR,8cR,10aR)-2-Hydroxy-2,6a-dimethyloctadecahydrocyclopropa[4,5]cyclopenta[1,2-a]phenanthren-7-yl)-2-(2H-1,2,3-triazol-2-yl)ethan-1-one]",IC50,GABA-A receptor,14.7 nM
"C[C@@]1(O)CC[C@H]2[C@H](CC[C@@H]3[C@@H]2CC[C@@]2(C)[C@H]3[C@@H]3C[C@@H]3[C@@H]2C(=O)Cn2ccnn2)C1 [Example 8, 1-((2R,4aS,4bR,6aS,7S,7aS,8aR,8bR,8cR,10aR)-2-Hydroxy-2,6a-dimethyloctadecahydrocyclopropa[4,5]cyclopenta[1,2-a]phenanthren-7-yl)-2-(1H-1,2,3-triazol-1-yl)ethan-1-one]",IC50,GABA-A receptor,42 nM
"C[C@@]1(O)CC[C@H]2[C@H](CC[C@@H]3[C@@H]2CC[C@@]2(C)[C@H]3[C@@H]3C[C@@H]3[C@@H]2C(=O)Cn2cc(Cl)cn2)C1 [Example 18, 2-(4-Chloro-1H-pyrazol-1-yl)-1-((2R,4aS,4bR,6aS,7S,7aS,8aR,8bR,8cR,10aR)-2-hydroxy-2,6a-dimethyloctadecahydrocyclopropa[4,5]cyclopenta[1,2-a]phenanthren-7-yl)ethan-1-one]",IC50,GABA-A receptor,6.4 nM
"C[C@@]1(O)CC[C@H]2[C@H](CC[C@@H]3[C@@H]2CC[C@@]2(C)[C@H]3[C@@H]3C[C@@H]3[C@@H]2C(=O)Cn2cc(C#N)c(C3CC3)n2)C1 [Example 33, 3-Cyclopropyl-1-(2-((2R,4aS,4bR,6aS,7S,7aS,8aR,8bR,8cR,10aR)-2-hydroxy-2,6a-dimethyloctadecahydrocyclopropa[4,5]cyclopenta[1,2-a]phenanthren-7-yl)-2-oxoethyl)-1H-pyrazole-4-carbonitrile]",IC50,GABA-A receptor,18.3 nM
"C[C@@]1(O)CC[C@H]2[C@H](CC[C@@H]3[C@@H]2CC[C@@]2(C)[C@H]3[C@@H]3C[C@@H]3[C@@H]2C(=O)Cn2ncc(C#N)c2C2CC2)C1 [Example 34, 5-Cyclopropyl-1-(2-((2R,4aS,4bR,6aS,7S,7aS,8aR,8bR,8cR,10aR)-2-hydroxy-2,6a-dimethyloctadecahydrocyclopropa[4,5]cyclopenta[1,2-a]phenanthren-7-yl)-2-oxoethyl)-1H-pyrazole-4-carbonitrile]",IC50,GABA-A receptor,28.1 nM
"Cc1nn(CC(=O)[C@H]2[C@H]3C[C@H]3[C@H]3[C@@H]4CC[C@@H]5C[C@](C)(O)CC[C@@H]5[C@H]4CC[C@@]32C)cc1C#N [Example 37A, 1-(2-((2R,4aS,4bR,6aS,7S,7aS,8aR,8bR,8cR,10aR)-2-Hydroxy-2,6a-dimethyloctadecahydrocyclopropa[4,5]cyclopenta[1,2-a]phenanthren-7-yl)-2-oxoethyl)-3-methyl-1H-pyrazole-4-carbonitrile]",IC50,GABA-A receptor,15.4 nM
"Cc1c(C#N)cnn1CC(=O)[C@H]1[C@H]2C[C@H]2[C@H]2[C@@H]3CC[C@@H]4C[C@](C)(O)CC[C@@H]4[C@H]3CC[C@@]21C [Example 37B, 1-(2-((2R,4aS,4bR,6aS,7S,7aS,8aR,8bR,8cR,10aR)-2-Hydroxy-2,6a-dimethyloctadecahydrocyclopropa[4,5]cyclopenta[1,2-a]phenanthren-7-yl)-2-oxoethyl)-5-methyl-1H-pyrazole-4-carbonitrile]",IC50,GABA-A receptor,15.4 nM
"CC[C@@H]1C[C@H](C(=O)Cn2cc(C#N)cn2)[C@@]2(C)CC[C@H]3[C@@H](CC[C@@H]4C[C@](C)(O)CC[C@@H]43)[C@H]12 [Example 81, 1-(2-((3R,5R,8R,9R,10S,13S,14S,15R,17S)-15-Ethyl-3-hydroxy-3,13-dimethylhexadecahydro-1H-cyclopenta[a]phenanthren-17-yl)-2-oxoethyl)-1H-pyrazole-4-carbonitrile]",AUC(0-t),[1]; brain tissue,1440 ng·h/mL
same,AUC(0-inf),[1]; brain tissue,2230 ng·h/mL
same,half-life,[1]; brain tissue,5.59 h
same,MRT,[1]; brain tissue,7.97 h
same,Tmax,[1]; brain tissue,1 h
same,Cmax,[1]; brain tissue,296 ng/mL
same,AUC(0-t),[1]; plasma,4640 ng·h/mL
same,AUC(0-inf),[1]; plasma,5920 ng·h/mL
same,half-life,[1]; plasma,2.64 h
same,MRT,[1]; plasma,4.96 h
same,Tmax,[1]; plasma,1 h
same,Cmax,[1]; plasma,1150 ng/mL
"C[C@@]1(O)CC[C@H]2[C@H](CC[C@@H]3[C@@H]2CC[C@@]2(C)[C@H]3[C@@H]3C[C@@H]3[C@@H]2C(=O)Cn2cc([N+](=O)[O-])cn2)C1 [Example 103, 1-((2R,4aS,4bR,6aS,7S,7aS,8aR,8bR,8cR,10aR)-2-Hydroxy-2,6a-dimethyloctadecahydrocyclopropa[4,5]cyclopenta[1,2-a]phenanthren-7-yl)-2-(4-nitro-1H-pyrazol-1-yl)ethan-1-one]",AUC(0-t),[1]; brain tissue,1680 ng·h/mL
same,AUC(0-inf),[1]; brain tissue,1710 ng·h/mL
same,half-life,[1]; brain tissue,1.12 h
same,MRT,[1]; brain tissue,2.07 h
same,Tmax,[1]; brain tissue,1 h
same,Cmax,[1]; brain tissue,626 ng/mL
same,AUC(0-t),[1]; plasma,1030 ng·h/mL
same,AUC(0-inf),[1]; plasma,1060 ng·h/mL
same,half-life,[1]; plasma,1.19 h
same,MRT,[1]; plasma,2.12 h
same,Tmax,[1]; plasma,1 h
same,Cmax,[1]; plasma,386 ng/mL
